Assay results published in PubChem BioAssay (NCI).
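These data come from cells grown in 96-well plates and exposed to compound for 48 hours at five concentrations. TGI: concentration producing complete growth inhibition.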

What was measured:
Assay in all cases: inhibition of tumour cell growth, NCI panel, 48 h
[1] = system: BT-549 breast
[2] = system: COLO 205 colon
[3] = system: DU-145 prostate
[4] = system: EKVX NSCLC
[5] = system: HCC-2998 colon
[6] = system: HCT-15 colon
[7] = system: HL-60(TB) leukemia
[8] = system: HOP-92 NSCLC
[9] = system: HS 578T breast
[10] = system: K-562 leukemia
[11] = system: M14 melanoma
[12] = system: NCI-H460 lung
[13] = system: OVCAR-3 ovarian
[14] = system: OVCAR-4 ovarian
[15] = system: RPMI-8226 leukemia
[16] = system: RXF 393 renal
[17] = system: SF-268 CNS
[18] = system: SF-295 CNS
[19] = system: SK-MEL-5 melanoma

SMILES | TGI [1] | TGI [2] | TGI [3] | TGI [4] | TGI [5] | TGI [6] | TGI [7] | TGI [8] | TGI [9] | TGI [10] | TGI [11] | TGI [12] | TGI [13] | TGI [14] | TGI [15] | TGI [16] | TGI [17] | TGI [18] | TGI [19]
CC(=O)OCCCC(NC(=O)OC(C)(C)C)C(=O)NC(CCCOC(C)=O)C(=O)NC(Cc1ccc([N+](=O)[O-])cc1)C(=O)NCC(=O)OCc1ccccc1 (stereo not given) | 32.6 µM | 31.4 µM | 32.7 µM | 33.3 µM | 33.4 µM | 30.2 µM | 19.5 µM | 42.1 µM | 32.8 µM | 96 µM | 25.6 µM | 29.5 µM | 30.1 µM | 28.8 µM | 44.6 µM | 31.1 µM | 35.6 µM | 24.4 µM | 30.1 µM
O=NN1C(c2ccccc2)CC(=NO)CC1c1ccccc1 (stereo not given) | > 100 µM | > 100 µM | > 100 µM | > 100 µM | > 100 µM | > 100 µM | > 100 µM | > 100 µM | > 100 µM | > 100 µM | > 100 µM | > 100 µM | > 100 µM | > 100 µM | > 100 µM | > 100 µM | > 100 µM | > 100 µM | > 100 µM
Cc1ccc(C2=Nn3c(nc4sc(C)c(C)c4c3=O)SC2)cc1 | > 100 µM | > 100 µM | > 100 µM | > 100 µM | > 100 µM | > 100 µM | > 100 µM | > 100 µM | > 100 µM | > 100 µM |  | > 100 µM | > 100 µM | > 100 µM | > 100 µM | > 100 µM | > 100 µM | > 100 µM | > 100 µM
Fc1ccc(C(OCCN2CCN(CCCCl)CC2)c2ccc(F)cc2)cc1 | 83.6 µM | 32.7 µM | 73.7 µM | > 100 µM | 42.5 µM | 33.8 µM | 25.6 µM | 49 µM | 83.8 µM | 60.7 µM | 39.5 µM | 55.5 µM | 74.9 µM | 81.5 µM | 49.5 µM | 44.4 µM | 77.5 µM | 58.1 µM | 32.4 µM
O=C1NCC(CSc2nc3cc(C4CCCc5c4[nH]c4ccccc54)ccc3o2)N1 (stereo not given) | > 100 µM | > 100 µM | > 100 µM | > 100 µM | > 100 µM | > 100 µM | > 100 µM | 71.2 µM | > 100 µM | > 100 µM | > 100 µM | > 100 µM | > 100 µM | > 100 µM | > 100 µM | > 100 µM | > 100 µM | > 100 µM | > 100 µM
COc1cc(C2=C(c3cc(OC)c4ccccc4c3OC)C(=O)c3ccccc3C2=O)c(OC)c2ccccc12 | > 100 µM | > 100 µM | > 100 µM | > 100 µM |  | > 100 µM | > 100 µM | > 100 µM | > 100 µM |  | > 100 µM | > 100 µM | > 100 µM | > 100 µM |  | > 100 µM | > 100 µM | > 100 µM | > 100 µM
C/C(=C(/C)c1ccc(O)cc1)c1ccc(O)cc1 | > 100 µM | > 100 µM | > 100 µM | 88.2 µM | > 100 µM | > 100 µM | 81.4 µM | 91.6 µM | 75.6 µM | > 100 µM | > 100 µM | > 100 µM | > 100 µM |  | 71.6 µM | > 100 µM | > 100 µM |  | 50 µM
CC1(C)CC(C2=NCCO2)CC(C)(C)N1 | > 100 µM | > 100 µM | > 100 µM | > 100 µM |  | > 100 µM | > 100 µM | > 100 µM | > 100 µM | > 100 µM | > 100 µM |  | > 100 µM | > 100 µM | > 100 µM | > 100 µM | > 100 µM | > 100 µM | > 100 µM
COc1ccc(/C=C2\CCC(CNc3ccc(S(N)(=O)=O)cc3)C2=O)cc1 (stereo not given) | 33.9 µM | 34.4 µM | > 88.1 µM | > 69.2 µM | > 100 µM | 18.2 µM | 7.73 µM | 22.5 µM | > 91.1 µM | 3.74 µM | 36.4 µM | > 77.2 µM | 22.7 µM | > 81.2 µM |  | 35.3 µM | 54.4 µM | > 100 µM | 31.8 µM
CN1CCN(C(=S)N(C(=O)c2ccc(Cl)cc2)c2ccccc2)CC1 | > 100 µM | > 100 µM | > 100 µM |  | > 100 µM | > 100 µM | > 100 µM | > 100 µM | > 100 µM | > 100 µM | > 100 µM | > 100 µM | > 100 µM | > 100 µM | > 100 µM | > 100 µM | > 100 µM | > 100 µM | > 100 µM
